Key:
[1] = system: CD34+CD43− cells isolated from Activin A induced or SB-treated EBs; experiment: T lymphoid precursor frequency analysis (limiting dilution assay on OP9-DL4 cells); format: cell-based, human; conditions: limiting dilution analyses, day 9 CD34+ population
Method: (§1) The hESC line H1 (Thomson et al., 1998) and the reprogrammed human iPS cell line (MSC-iPS1; (Park et al., 2008)) were used in this study. They were maintained on irradiated mouse embryonic fibroblasts in hESC media as described previously (Kennedy et al., 2007). Prior to differentiation, the cells were feeder-depleted by culturing on matrigel (BD Biosciences, Bedford, Mass.) in hESC media for 24 to 48 hours. To generate EBs, hPSCs were treated with collagenase B (1 mg/ml; Roche, Indianapolis, Ind.) for 20 minutes followed by a short trypsin-EDTA (0.05%) step. Cells were gently scraped with a cell scraper to form small aggregates (10-20 cells). Aggregates were resuspended in StemPro-34 (Invitrogen), supplemented with penicillin/streptomycin (10 ng/mL), L-glutamine (2 mM), ascorbic acid (1 mM), monothioglycerol (MTG, 4×10^−4M; Sigma), and transferrin (150 μg/mL). […]
Limiting dilution assays (LDA) of CD34+CD43− cells isolated from either Activin A induced or SB-treated EBs were performed by serial dilutions. […] The presence of CD45+CD7+CD43+CD5+ cells was scored. Progenitor frequencies were determined by the method of maximum likelihood applied to the Poisson model (Groth, 1982).

[2] = system: H1 hESCs differentiated as embryoid bodies (EBs); experiment: Hematopoietic colony assay of hESC-derived EBs; format: cell-based, human; conditions: for erythroid progenitors in day 13 EBs: treatment between days 2 and 4 of differentiation, Activin A at increasing concentrations
Method: The hESC line H1 (Thomson et al., 1998) and the reprogrammed human iPS cell line (MSC-iPS1; (Park et al., 2008)) were used in this study. They were maintained on irradiated mouse embryonic fibroblasts in hESC media as described previously (Kennedy et al., 2007). Prior to differentiation, the cells were feeder-depleted by culturing on matrigel (BD Biosciences, Bedford, Mass.) in hESC media for 24 to 48 hours. To generate EBs, hPSCs were treated with collagenase B (1 mg/ml; Roche, Indianapolis, Ind.) for 20 minutes followed by a short trypsin-EDTA (0.05%) step. Cells were gently scraped with a cell scraper to form small aggregates (10-20 cells). Aggregates were resuspended in StemPro-34 (Invitrogen), supplemented with penicillin/streptomycin (10 ng/mL), L-glutamine (2 mM), ascorbic acid (1 mM), monothioglycerol (MTG, 4×10^−4M; Sigma), and transferrin (150 μg/mL). BMP-4 (10 ng/mL), bFGF (5 ng/mL), Activin A, 6 μM SB-431542, VEGF (15 ng/mL), Dkk (150 ng/mL), IL-6 (10 ng/mL), IGF-1 (25 ng/mL), IL-11 (5 ng/mL), SCF (50 ng/mL), EPO (2 U/mL final), TPO (30 ng/mL), IL-3 (30 ng/mL) and Flt-3L (10 ng/mL) were added as indicated. Cultures were maintained in a 5% CO2/5% O2/90% N2 environment for the first 8 days and then transferred to a 5% CO2/air environment. All recombinant factors are human and were purchased from R&D Systems (Minneapolis, Minn.).
Analysis of hematopoietic colony potential was performed by plating either 5×103-2.5×10^4 sorted cells or 2.5×104-5.0×104 unfractionated EB populations in 1% methylcellulose containing specific cytokines as described in detail previously (Kennedy et al., 2007). Colonies consisting of erythroid, erythroid/myeloid and myeloid (either macrophage or mast cell) cells were quantified after 10-14 days.

[3] = system: H1 hESCs differentiated as embryoid bodies (EBs); experiment: Flow cytometric analysis of surface markers on hESC-derived EBs; format: cell-based, human
Method: The hESC line H1 (Thomson et al., 1998) and the reprogrammed human iPS cell line (MSC-iPS1; (Park et al., 2008)) were used in this study. They were maintained on irradiated mouse embryonic fibroblasts in hESC media as described previously (Kennedy et al., 2007). Prior to differentiation, the cells were feeder-depleted by culturing on matrigel (BD Biosciences, Bedford, Mass.) in hESC media for 24 to 48 hours. To generate EBs, hPSCs were treated with collagenase B (1 mg/ml; Roche, Indianapolis, Ind.) for 20 minutes followed by a short trypsin-EDTA (0.05%) step. Cells were gently scraped with a cell scraper to form small aggregates (10-20 cells). Aggregates were resuspended in StemPro-34 (Invitrogen), supplemented with penicillin/streptomycin (10 ng/mL), L-glutamine (2 mM), ascorbic acid (1 mM), monothioglycerol (MTG, 4×10^-4M; Sigma), and transferrin (150 μg/mL). BMP-4 (10 ng/mL), bFGF (5 ng/mL), Activin A, 6 μM SB-431542, VEGF (15 ng/mL), Dkk (150 ng/mL), IL-6 (10 ng/mL), IGF-1 (25 ng/mL), IL-11 (5 ng/mL), SCF (50 ng/mL), EPO (2 U/mL final), TPO (30 ng/mL), IL-3 (30 ng/mL) and Flt-3L (10 ng/mL) were added as indicated. Cultures were maintained in a 5% CO2/5% O2/90% N2 environment for the first 8 days and then transferred to a 5% CO2/air environment. All recombinant factors are human and were purchased from R&D Systems (Minneapolis, Minn.). The following antibodies were used for these studies: CD3-APC (clone UCHT1), CD4-APC-EFluor750 (clone RPA-T4), CD5-PE-Cy7 (clone L17F12), CD7-FITC (clone M-[…]), CD8-eFluor-650 NC (clone RPA-T8), CD31-FITC (clone WM59), CD33-FITC (clone HIM 3-4), CD34-APC (clone 8G12), CD34-PE-CY7 (clone 4H11), CD41-APC (clone HIP8), […]10), CD45-APC-eFluor750 (clone 2D1) or CD45-PacificBlue (clone H130), CD56-PE-Cy7 (clone B159), CD90-APC (clone 5E10), CD117-APC (clone 104D2), CD144-PE (clone 123413), KDR-PE (clone 89106), TCRγδ-FITC (clone 11F2), TCRαβ-PE (clone T10B9.1A-31). Stained cells were analyzed using an LSRII (BD Biosciences) flow cytometer at the indicated time points. Data analysis was performed using FlowJo software. For T lymphoid studies, analyses were carried out by gating on live cells and lack of 6-Diamidino-2-phenylindole (DAPI) uptake, followed by gating on cells expressing CD45. All antibodies were purchased from BD Biosciences (San Diego, Calif.) with the following exceptions: CD8 eFluor-650 NC and CD34-PE-CY7 were purchased from eBioscience (San Diego, Calif.) and KDR was purchased from R&D systems. Cells were sorted with […] (BD) cell sorter at the Sick Kids/UHN Flow Cytometry Facility.

[4] = system: phospho-SMAD2 (Activin/nodal signaling); experiment: Western blot / densitometry of phospho-Smad2 in day 2 EBs; format: cell-based, human; conditions: 30 minutes treatment, FIG. 4B
Excerpt: Thirty minutes after the addition of DMSO, Activin A, and/or SB at day 2 of differentiation, wells were harvested and lysed on ice using RIPA buffer. Proteins were separated by SDS-PAGE, transferred onto nitrocellulose membranes and probed overnight with Smad2 (Cell Signaling, 1:1000) and phospho-Smad2 antibodies (Millipore, 1:1000, […]/467). Membranes were scanned using the LI-COR Biosciences Odyssey imaging system.

[5] = system: CD34+ population isolated from EBs; experiment: RT-qPCR expression analysis of CD34+ fractions from day 9 EBs; format: cell-based, human; conditions: FIG. 4E
Method: Total RNA was prepared with the RNAqueous RNA Isolation Kit (Ambion) and treated with RNase-free DNase (Qiagen). 100 ng to 1 ug RNA was transcribed into cDNA using random hexamers and Oligo (dT) with Superscript III Reverse Transcriptase (Invitrogen). Real-time quantitative PCR was performed on a MasterCycler EP RealPlex (Eppendorf). All experiments were carried out in triplicate using SYBR Green JumpStart Taq ReadyMix (Sigma). The oligonucleotide sequences are available upon request. Gene expression was evaluated as DeltaCt relative to control (ACTB).

day 9 CD34+ progenitors = experiment: OP9-DL4 co-culture for T-lineage differentiation; format: cell-based, human; conditions: cultured on OP9-DL4 cells; FIG. 5A
Method: OP9 cells retrovirally-transduced to express Delta-like 4 (OP9-DL4) were generated and maintained in α-MEM medium supplemented with penicillin/streptomycin and 20% FBS (OP9 media) as previously described (La Motte-Mohs et al., 2005; Schmitt et al., 2004). 5-10×10^4 sorted human EB-derived subsets were added to individual wells of a 6-well plate containing OP9-DL4 cells, and cultured in OP9-media supplemented with rhFlt-3L (5 ng/mL) and rhIL-7 (5 ng/mL), (Peprotech, Rocky Hill, N.J.). rhSCF (100 ng/mL) was added for the first 8 days only, Every five days co-cultures were transferred onto fresh OP9-DL4 cells by vigorous pipetting and passaging through a 40 μm cell strainer to remove stromal cells.

CD34+CD43− populations = experiment: OP9-DL1 co-culture for erythroid/myeloid differentiation followed by colony assay; format: cell-based, human; conditions: 7 days of co-culture on OP9-DL1; FIG. 6C
Method: Sorted cells were cultured at a concentration of 2×10^4 cells per well on irradiated OP9-DL1 monolayers in OP9 media with VEGF (5 ng/mL), TPO (30 ng/mL), SCF (50 ng/mL), Flt3 (10 ng/mL), IL-11 (5 ng/mL), and BMP-4 (10 ng/mL) in 24-well plates for 7 days. Cells were harvested as above. Analysis of hematopoietic colony potential was performed by plating either 5×103-2.5×10^4 sorted cells or 2.5×104-5.0×104 unfractionated EB populations in 1% methylcellulose containing specific cytokines as described in detail previously (Kennedy et al., 2007). Colonies consisting of erythroid, erythroid/myeloid and myeloid (either macrophage or mast cell) cells were quantified after 10-14 days.

iPSC line MSC-iPS1 = experiment: Hematopoietic differentiation of hiPSCs (flow cytometry and colony assay); format: cell-based, human; conditions: SB added between days 2 to 4; hiPSC; FIG. 7
Method: as §1, with “cells).” for “cells). Aggregates were resuspended in StemPro-34 (Invitrogen), supplemented with penicillin/streptomycin (10 ng/mL), L-glutamine (2 mM), ascorbic acid (1 mM), monothioglycerol (MTG, 4×10^−4M; Sigma), and transferrin (150 μg/mL).”
The following antibodies were used for these studies: CD3-APC (clone UCHT1), CD4-APC-EFluor750 (clone RPA-T4), CD5-PE-Cy7 (clone L17F12), CD7-FITC (clone M-T701), CD8-eFluor-650 NC (clone RPA-T8), CD31-FITC (clone WM59), CD33-FITC (clone HIM 3-4), CD34-APC (clone 8G12), CD34-PE-CY7 (clone 4H11), CD41-APC (clone HIP8), CD42b-PE (clone HIP1), CD43-PE (clone 1G10), CD45-APC-eFluor750 (clone 2D1) or CD45-PacificBlue (clone H130), CD56-PE-Cy7 (clone B159), CD90-APC (clone 5E10), CD117-APC (clone 104D2), CD144-PE (clone 123413), KDR-PE (clone 89106), TCRγδ-FITC (clone 11F2), TCRαβ-PE (clone T10B9.1A-31). Stained cells were analyzed using an LSRII (BD Biosciences) flow cytometer at the indicated time points. […]

[6] = system: other pathways or kinases including BMP4, ERK, JNK or p38 MAPK; conditions: Inman, 2002; cited from earlier work
[7] = inhibition between days 2 and 4, FIG. 4C

Molecule	frequency of T cell progenitors in SB-treated CD34+ population relative to Activin A-induced CD34+CD43− population [1]	erythroid progenitors in SB-treated EBs ([2]; any of the timepoints assayed, FIG. 4D)	erythroid progenitors in day 13 EBs ([2]; FIG. 1C)	CD43+ population at day 9 when SB addition delayed until day 3 ([3]; SB added at day 3 of differentiation, FIG. 9)	development of KDR+ and CD34+ populations ([3]; SB added between days 2 and 4 of differentiation)	induction of KDR+CD34+ hematopoietic mesoderm population at day 5 of differentiation ([3]; SB added within the first 24 hours of differentiation, FIG. 4A)	development of the CD43+ population in day 9 EBs [3, 7]	effect on CD34+ cells in day 9 EBs [3, 7]	development of KDR+ cells (mesoderm formation) ([3]; inhibitor added between days 1 and 2 of differentiation)	levels of phospho-SMAD2 (densitometry) [4]	expression of LMO2, GATA1, GATA2 and HOXB4 versus Activin A-induced population [5]	expression of SOX17 and AML1C in CD34+ population versus Activin A-induced CD34+CD43− population [5]	T cell generation from SB-treated day 9 CD34+ progenitors (day 9 CD34+ progenitors)	numbers of erythroid and erythroid-myeloid progenitors versus Activin A-induced progenitors (CD34+CD43− populations)	development of CD41+/CD43+ populations and erythroid and erythroid-myeloid progenitors (iPSC line MSC-iPS1)	inhibition of other pathways or kinases including BMP4, ERK, JNK or p38 MAPK [6]	induction of myeloid and erythroid progenitors ([2]; 0.3 ng/mL Activin A)	myeloid progenitors in day 13 EBs ([2]; increasing concentrations of Activin A, days 2-4, FIG. 1C)
NC(=O)c1ccc(-c2nc(-c3ccc4c(c3)OCO4)c(-c3ccccn3)[nH]2)cc1 [SB-431542]	more than 3 fold	not detected	eliminated almost all erythroid progenitors	development of some CD43^+ cells	developed normally	completely blocked	completely blocked	did not appear to impact	prevented the development of any KDR^+ cells	significantly reduced	comparable	higher levels	generated T cells	significantly higher numbers	inhibited	no observed inhibition	–	–
Activin A: recombinant human factor purchased from R&D Systems, used for hematopoietic induction (protein, UniProt P08476 311-426, looked up) Inhibin beta A chain: GLECDGKVNICCKKQFFVSFKDIGWNDWIIAPSGYHANYCEGECPSHIAGTSGSSLSFHSTVINHYRMRGHSPFANLKSCCVPTKLRPMSMLYYDDGQNIIKKDIQNMIVEECGCS	–	–	increase in erythroid progenitors	–	–	–	–	–	–	–	–	–	–	–	–	–	effectively induced both myeloid and erythroid progenitors	reduction in myeloid progenitors

Source: patent US9834754B2, “Populations of hematopoietic progenitors and methods of enriching stem cells therefor” (University Health Network, priority 2011, dated 2017)
